From US20090022729A1, “METHODS AND COMPOSITIONS FOR TREATING CARDIAC DYSFUNCTIONS” (priority 2007, published 2009)

Legend:
[1] = molecular target: T1, PAR-1 (Homo sapiens, UniProt P25116); settings: cited from earlier work
T1 sequence (P25116 22-425): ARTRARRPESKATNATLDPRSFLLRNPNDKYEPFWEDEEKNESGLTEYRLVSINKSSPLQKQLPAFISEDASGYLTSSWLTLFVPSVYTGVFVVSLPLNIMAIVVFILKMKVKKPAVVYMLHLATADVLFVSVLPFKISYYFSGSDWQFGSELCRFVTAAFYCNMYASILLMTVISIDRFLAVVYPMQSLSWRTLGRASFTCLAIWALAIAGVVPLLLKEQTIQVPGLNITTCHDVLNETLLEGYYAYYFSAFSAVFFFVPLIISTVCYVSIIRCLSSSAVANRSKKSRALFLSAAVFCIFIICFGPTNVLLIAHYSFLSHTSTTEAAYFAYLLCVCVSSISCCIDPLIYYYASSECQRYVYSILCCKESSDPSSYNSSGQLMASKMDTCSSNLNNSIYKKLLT

[2] = molecular target: T2, PAR2 (Homo sapiens, UniProt P55085); settings: cited from earlier work
T2 sequence (P55085 26-397): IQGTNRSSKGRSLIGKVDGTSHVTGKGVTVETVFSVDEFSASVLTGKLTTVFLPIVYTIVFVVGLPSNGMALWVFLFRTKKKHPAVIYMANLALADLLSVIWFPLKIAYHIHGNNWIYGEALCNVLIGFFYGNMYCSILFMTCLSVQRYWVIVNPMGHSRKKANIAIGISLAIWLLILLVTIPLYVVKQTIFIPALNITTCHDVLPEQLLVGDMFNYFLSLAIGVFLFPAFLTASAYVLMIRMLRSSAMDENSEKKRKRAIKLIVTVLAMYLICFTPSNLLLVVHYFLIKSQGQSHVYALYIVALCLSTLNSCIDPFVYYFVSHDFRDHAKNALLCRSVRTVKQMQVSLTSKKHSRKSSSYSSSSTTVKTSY

[3] = molecular target: T3, PAR3 (Homo sapiens, UniProt O00254); settings: cited from earlier work
T3 sequence (O00254 22-374): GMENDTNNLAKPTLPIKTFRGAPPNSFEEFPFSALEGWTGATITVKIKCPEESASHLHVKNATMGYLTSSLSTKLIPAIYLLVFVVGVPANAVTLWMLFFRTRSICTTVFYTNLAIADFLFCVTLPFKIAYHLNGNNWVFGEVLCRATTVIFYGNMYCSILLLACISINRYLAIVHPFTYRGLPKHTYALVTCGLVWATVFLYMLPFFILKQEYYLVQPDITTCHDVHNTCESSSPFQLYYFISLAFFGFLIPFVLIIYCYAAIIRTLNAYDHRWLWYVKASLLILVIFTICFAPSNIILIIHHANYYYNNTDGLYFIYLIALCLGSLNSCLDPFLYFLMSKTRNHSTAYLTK

[4] = molecular target: T1, PAR-1; settings: cited from earlier work; remark: listed apart in the source
[5] = molecular target: T4, PAR4 (Homo sapiens, UniProt Q96RI0); settings: cited from earlier work
T4 sequence (Q96RI0 18-385): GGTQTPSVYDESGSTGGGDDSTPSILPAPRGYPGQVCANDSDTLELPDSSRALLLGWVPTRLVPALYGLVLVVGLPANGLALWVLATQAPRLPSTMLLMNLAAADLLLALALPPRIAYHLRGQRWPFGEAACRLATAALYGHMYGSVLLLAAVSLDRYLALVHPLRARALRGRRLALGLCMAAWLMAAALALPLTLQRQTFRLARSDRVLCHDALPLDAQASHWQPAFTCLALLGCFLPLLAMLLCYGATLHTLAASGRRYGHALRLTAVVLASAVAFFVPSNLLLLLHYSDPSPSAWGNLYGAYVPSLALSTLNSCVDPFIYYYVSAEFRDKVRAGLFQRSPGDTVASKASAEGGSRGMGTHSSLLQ

[6] = molecular target: thrombin (Homo sapiens, UniProt P00734); settings: cited from earlier work
[7] = molecular target: T5, thrombin (Mus musculus, UniProt P19221); assay: short-term cardiac I/R injury model (30 minutes of ischemia and 2 hours of reperfusion); assay type: in vivo; settings: WT mice, hirudin vs saline, FIG. 1A
T5 construct: from tissue; host or cells: wild-type mice in vivo (blood / injured myocardium)
Protocol: Cardiac I/R injury models. For the short-term I/R model (30 minutes of ischemia and 2 hours of reperfusion), the surgical protocol and infarct size determination were performed as described in Palazzo et al. (Am. J. Physiol. 275:H2300-H2307 (1998)) with some modifications. Briefly, intraperitoneal injection of pentobarbital (100 mg/kg) (Abbott Laboratories, Abbott Park, Ill.) was used for anesthesia. Mice were orally intubated to provide artificial ventilation (0.3 mL tidal volume, 120 breaths/minute). The left anterior descending coronary artery was occluded with a 7-0 silk suture (U.S. Surgical Corp., Norwalk, Conn.) passed through PE tubing (U.S. Surgical Corp.) to make a Rumel snare. After 30 minutes of ischemia, the snare was released and the heart was reperfused for 2 hours. Finally, the artery was reoccluded and 4% Evans Blue dye was injected into the aortic root to delineate the area-at-risk (AAR) from not at-risk myocardium (blue). […] The LV, AAR and infarct areas were traced and calculated by computer planimetry (Image J, version 1.21). Infarct volumes were calculated as: [(A1×W1)+(A2×W2)+(A3×W3)+(A4×W4)+(A5×W5)], where A is the area of infarct for the slice denoted by the subscript and W is the weight of the respective section.

Row | Compound | PAR1 antagonist activity and selectivity [1] | effect on PAR2 [2] | effect on PAR3 [3] | calcium mobilization [4] | effect on PAR4 [5] | inhibition of thrombin activity [6] | infarct size [7] | size of the area at-risk [7]
1 | NCC[C@H](NC(=O)[C@H](Cc1ccc(F)c(F)c1)NC(=O)Nc1ccc2c(CN3CCCC3)cn(Cc3c(Cl)cccc3Cl)c2c1)C(=O)NCc1ccccc1 [RWJ-56110, (αS)—N-[(1S)-3-amino-1-[[(phenylmethyl)amino]carbonyl]propyl]-α-[[[[[1-(2,6-dichlorophenyl)methyl]-3-(1-pyrrolidinylmethyl)-1H-indol-6-yl]amino]carbonyl]amino]-3,4-difluorobenzenepropanamide] | potent, selective PAR-1 antagonist | does not affect | does not affect | interferes with calcium mobilization | does not affect | does not affect PAR2, PAR3, or PAR4 or inhibit thrombin activity | – | –
2 | hirudin | – | – | – | – | – | – | decreased | Neither hirudin treatment nor PAR1 deficiency affected
